Assay results reported in patent US5075322A, “Selenophen derivatives, a preparation process of the same and therapeutical compositions containing them” (Societe de Conseils de Recherches et d'Applications …, priority 1989, dated 1991).

What was measured:
[1] = system: ovalbumine-induced bronchospasm; test: ovalbumine-induced bronchospasm in anaesthetized passively sensitized guinea-pigs; format: in vivo
Procedure: In the ovalbumine-induced bronchospasm in anaesthetized passively sensitized guinea-pigs, compound XI and ketotifen, administered 1 hour before the injection of ovalbumine, inhibit the bronchoconstriction (>90%) in a dose-dependant-manner respectively with following ED50 (P.O.)
For both products, the activity disappears at 24 hours.
The kinetic results, after administration by oral route of the said compounds at 0.1 mg/kg and 0.05 mg/kg (P.O.), for 1 to several hours before ovalbumine injection (1 mg/kg), are reported respectively in tables 1 and 2.
(§1) The different symbols NS, *, ** and *** which may be found in the different tables, mean that the result is respectively not significative, significative, very significative and highly significative.

[2] = system: histamine induced bronchospasm; test: histamine-induced bronchospasm in artificially ventilated anaesthetized guinea pigs; format: in vivo; conditions: Cavia porcellus, po; administered 1 hour before histamine (15 mg IV), P.O.; read-out: ED 50 (P.O.)
[3] = system: B.S.A.-induced immune lethality in mice; test: B.S.A.-induced immune lethality (anaphylactic shock) in actively sensitized mice; format: in vivo
Text: as §1
At the same dose, ketotifen has no effect.

[4] = system: PAF induced bronchospasm; test: PAF-induced bronchospasm in artificially-ventilated anaesthetized guinea pigs; format: in vivo; conditions: for Percentage of bronchoconstriction / Percentage of effect: Table VII, PAF 60 mg/kg IV
Text: as §1

[5] = system: rat washed platelets; test: PAF-induced aggregation of rat washed platelets in vitro; format: cell-based; conditions: Platelet, PAF 5.10^-10 M
Text: In vitro: effects on aggregation (IC50) induced by PAF (5·10^-10 M), rat washed platelets are as follow: IC50 Compound XI 2.10^-6 M. IC50 Ketotifen 10^-5 M.

[6] = system: ovalbumine-induced bronchospasm; test: ovalbumine-induced bronchospasm in actively sensitized guinea pigs; format: in vivo; conditions: Table III, 0.1 mg/kg PO
Text: as §1

[7] = system: ovalbumine-induced bronchospasm; test: ovalbumine-induced bronchoconstriction in passively sensitized rats; format: in vivo; conditions: for Percentage of bronchoconstriction / Percentage of effect: Table IV
Text: as §1

[8] = system: histamine induced bronchospasm; test: histamine-induced bronchospasm in artificially ventilated anaesthetized guinea pigs; format: in vivo; conditions: for % of bronchoconstriction / % of effect: Table V, 0.1 mg/kg PO
Procedure: as §1
The kinetic results of the administration of compound XI and ketotifen by oral route at 0.1 mg/kg (P.O.), 1 to 27 h histamine injection (15 mg IV), are reported in table 5.

[9] = Table I, 0.1 mg/kg PO, pretreatment 1 h
[10] = Table I, 0.1 mg/kg PO, pretreatment 3 h
[11] = Table I, 0.1 mg/kg PO, pretreatment 6 h
[12] = Table I, 0.1 mg/kg PO, pretreatment 9 h
[13] = Table I, 0.1 mg/kg PO, pretreatment 15 h
[14] = Table I, 0.1 mg/kg PO, pretreatment 18 h
[15] = Table I, 0.1 mg/kg PO, pretreatment 21 h
[16] = Table I, 0.1 mg/kg PO, pretreatment 24 h
[17] = Table II, 0.05 mg/kg PO, pretreatment 1 h
[18] = Table II, 0.05 mg/kg PO, pretreatment 3 h
[19] = Table II, 0.05 mg/kg PO, pretreatment 6 h
[20] = Table II, 0.05 mg/kg PO, pretreatment 9 h
[21] = Table II, 0.05 mg/kg PO, pretreatment 15 h
[22] = Table II, 0.05 mg/kg PO, pretreatment 18 h
[23] = Table II, 0.05 mg/kg PO, pretreatment 21 h

With CN1CCC(=C2c3ccccc3CC(=O)c3sccc32)CC1 [ketotifen] the “time at which the activity disappears” value ([1]; 0.1 mg/kg and 0.05 mg/kg P.O.) was 24 h, the ED50 ([1]; Cavia porcellus, po, administered 1 hour before ovalbumine, P.O., passively sensitized guinea-pigs, read-out: ED50 (P.O.)) was 0.0941 µmol/kg and the “% of bronchoconstriction” value [1, 9] was 8.3 ± 3.2%. For the same compound, the “% of effect” value [1, 9] was -90.2 ± 3.8%, the “% of bronchoconstriction” value [1, 10] was 7.3 ± 3.0% and the “% of effect” value [1, 10] was -88.3 ± 4.8%. The “% of bronchoconstriction” value [1, 11] was 31.9 ± 17.9%, the “% of effect” value [1, 11] was -48.8 ± 28.8% and the “% of bronchoconstriction” value [1, 12] was 66.9 ± 19.7%. The “% of effect” value [1, 12] was -25.1 ± 22.0%, the “% of bronchoconstriction” value [1, 13] was 77.5 ± 10.6% and the “% of effect” value [1, 13] was -5.9 ± 13.3%. The “% of bronchoconstriction” value [1, 14] was 54.0 ± 18.6%, the “% of effect” value [1, 14] was -44.3 ± 19.2% and the “% of bronchoconstriction” value [1, 15] was 88.3 ± 7.6%. The “% of effect” value [1, 15] was -8.8 ± 7.9%, the “% of bronchoconstriction” value [1, 16] was 67.3 ± 15.0% and the “% of effect” value [1, 16] was “+8.3 ± 24.0%”. The “% of bronchoconstriction” value [1, 17] was 44.9 ± 15.9%, the “% of effect” value [1, 17] was -49.2% and the “% of bronchoconstriction” value [1, 18] was 5.7 ± 1.7%. The “% of effect” value [1, 18] was -93.6%, the “% of bronchoconstriction” value [1, 19] was 82.9 ± 14.0% and the “% of effect” value [1, 19] was -14.3%. For the same compound, the “% of bronchoconstriction” value [1, 20] was 80.3 ± 19.7%, the “% of effect” value [1, 20] was -17.1% and the “% of bronchoconstriction” value [1, 21] was 64.3 ± 18.3%. The “% of effect” value [1, 21] was -2.4%, the “% of bronchoconstriction” value [1, 22] was 100 ± 0% and the “% of effect” value [1, 22] was “+2.0%”. The “% of bronchoconstriction” value [1, 23] was 94.4 ± 3.2%, the “% of effect” value [1, 23] was -3.2% and the inhibition of bronchoconstriction ([1]; administered 1 hour before ovalbumine, P.O., dose-dependent) was greater than 90%. For the same compound, the ED50 [2] was 0.0635 µmol/kg, the “Mortality at 24 hours, % of mortality” value ([3]; 0.250 mg/kg PO) was 50% and the “Mortality at 24 hours, % of variation” value ([3]; 0.250 mg/kg PO) was -18.7%. The “Mortality at 24 hours, number of killed” value ([3]; 0.250 mg/kg PO) was 5/10, the “protective effect (in words)” value ([3]; 0.275 mg/kg P.O.) was “has no effect” and the “Mortality at 24 hours, % of mortality” value ([3]; 0.500 mg/kg PO) was 40%. The “Mortality at 24 hours, % of variation” value ([3]; 0.500 mg/kg PO) was -35%, the “Mortality at 24 hours, number of killed” value ([3]; 0.500 mg/kg PO) was 4/10 and the “inhibition of PAF induced bronchospasm (in words)” value ([4]; 1 hour before PAF, 0.1 mg/kg) was “less active”. It also gave a Percentage of bronchoconstriction ([4]; 0.1 mg/kg PO) of 63.5 ± 9.6%, a Percentage of effect ([4]; 0.1 mg/kg PO) of -18.9% and a Percentage of bronchoconstriction ([4]; 1 mg/kg PO) of 26.2 ± 14.8%. For the same compound, the Percentage of effect ([4]; 1 mg/kg PO) was -66.5%, the IC50 [5] was 10 µM and the “% of bronchoconstriction” value ([6]; pretreatment 1 h) was 3.6 ± 1.2%. The “% of effect” value ([6]; pretreatment 1 h) was -95.8 ± 1.4%, the “% of bronchoconstriction” value ([6]; pretreatment 3 h) was 3.3 ± 0.5% and the “% of effect” value ([6]; pretreatment 3 h) was -95.6 ± 0.7%. The “% of bronchoconstriction” value ([6]; pretreatment 6 h) was 42.1 ± 19.3%, the “% of effect” value ([6]; pretreatment 6 h) was -43.9 ± 25.8% and the “% of bronchoconstriction” value ([6]; pretreatment 9 h) was 83.2 ± 16.1%. For the same compound, the “% of effect” value ([6]; pretreatment 9 h) was -8.8 ± 17.6%, the “% of bronchoconstriction” value ([6]; pretreatment 15 h) was 77.5 ± 14.8% and the “% of effect” value ([6]; pretreatment 15 h) was -9.0 ± 17.4%. The “% of bronchoconstriction” value ([6]; pretreatment 18 h) was 64.5 ± 19.5%, the “% of effect” value ([6]; pretreatment 18 h) was “+17.9 ± 35.7%” and the “% of bronchoconstriction” value ([6]; pretreatment 21 h) was 73.6 ± 15.5%. The “% of effect” value ([6]; pretreatment 21 h) was “+34.4 ± 28.5%”, the Percentage of bronchoconstriction ([7]; 0.1 mg/kg PO) was 24.7 ± 5.1% and the Percentage of effect ([7]; 0.1 mg/kg PO) was -31.0%. For the same compound, the Percentage of bronchoconstriction ([7]; 1 mg/kg PO) was 46.3 ± 11.0%, the Percentage of effect ([7]; 1 mg/kg PO) was “+29.3%” and the “inhibition of bronchoconstriction (in words)” value ([7]; passively sensitized rats) was “has no effect”. The “% of bronchoconstriction” value ([8]; 1 h) was 2.1 ± 0.8%, the “% of effect” value ([8]; 1 h) was -97.4 ± 1.0% and the “% of bronchoconstriction” value ([8]; 3 h) was 0%. The “% of effect” value ([8]; 3 h) was -100 ± 0%, the “% of bronchoconstriction” value ([8]; 6 h) was 18.2 ± 13.3% and the “% of effect” value ([8]; 6 h) was -77.8 ± 16.2%. For the same compound, the “% of bronchoconstriction” value ([8]; 9 h) was 22.1 ± 14.1%, the “% of effect” value ([8]; 9 h) was -71.5 ± 14.1% and the “% of bronchoconstriction” value ([8]; 15 h) was 51.4 ± 16.7%. For the same compound, the “% of effect” value ([8]; 15 h) was -26.9 ± 16.7%, the “% of bronchoconstriction” value ([8]; 18 h) was 54.6 ± 13.3% and the “% of effect” value ([8]; 18 h) was -39.8 ± 14.8%. The “% of bronchoconstriction” value ([8]; 21 h) was 46.6 ± 14.9%, the “% of effect” value ([8]; 21 h) was -44.9 ± 17.6% and the “% of bronchoconstriction” value ([8]; 24 h) was 63.7 ± 15.1%. The “% of effect” value ([8]; 24 h) was -3.0 ± 23.1%, the “% of bronchoconstriction” value ([8]; 27 h) was 83.4 ± 5.9% and the “inhibition of bronchoconstriction (in words)” value ([8]; administered 1 hour before histamine (15 mg IV)) was “inhibit significantly the bronchoconstriction in a dose-dependant-manner”. For the same compound, the “duration of maximum effect” value ([8]; during only the first hours, 0.1 mg/kg P.O.) was 3 h.

Work on COc1ccc(CCN2CCC(Nc3nc4ccccc4n3Cc3ccc(F)cc3)CC2)cc1 [Astemizole] yielded a Percentage of bronchoconstriction ([7]; 5 mg/kg PO) of 8.6 ± 2.5% and a Percentage of effect ([7]; 5 mg/kg PO) of -76.0%.

For c1ccc2c(c1)Sc1ccccc1N2CC1CN2CCC1CC2 (stereo not drawn) [Mequitazine], the “Mortality at 24 hours, % of mortality” value ([3]; 2.5 mg/kg PO) was 30%, the “Mortality at 24 hours, % of variation” value ([3]; 2.5 mg/kg PO) was -51.2% and the “Mortality at 24 hours, number of killed” value ([3]; 2.5 mg/kg PO) was 3/10. The “Mortality at 24 hours, % of mortality” value ([3]; 10 mg/kg PO) was 30%, the “Mortality at 24 hours, % of variation” value ([3]; 10 mg/kg PO) was -51.2% and the “Mortality at 24 hours, number of killed” value ([3]; 10 mg/kg PO) was 3/10.
